How the values were obtained:
Test in all cases: KINOMEscan
Assay type in all cases: binding
[1] = biological target: T1, ABL1(F317L)-phosphorylated (Homo sapiens, UniProt P00519, F317L); details: 35 at 1 µM; read-out: % inhibition
T1 construct: purchased Eurofins DiscoverX (KINOMEscan)
Protocol: (§1) KinomeScan Assay on 35 was performed as previously described at EuroFins DiscoverX (Fremont, CA, USA).

ABL2 = biological target: T2, ABL2 (Homo sapiens, UniProt P42684); details: 35 at 1 µM; read-out: % inhibition
T2 construct: purchased Eurofins DiscoverX (KINOMEscan)
Protocol: as §1

AKT3 = biological target: T3, AKT3 (Homo sapiens, UniProt Q9Y243); details: 35 at 1 µM; read-out: % inhibition
T3 construct: purchased Eurofins DiscoverX (KINOMEscan)
Protocol: as §1

CSF1R = biological target: T4, CSF1R (Homo sapiens, UniProt P07333); details: 35 at 1 µM; read-out: % inhibition
T4 construct: purchased Eurofins DiscoverX (KINOMEscan)
Protocol: as §1

DCAMKL3 = biological target: T5, DCAMKL3 (Homo sapiens, UniProt Q9C098); details: 35 at 1 µM; read-out: % inhibition
T5 construct: purchased Eurofins DiscoverX (KINOMEscan)
Protocol: as §1

DMPK = biological target: T6, DMPK (Homo sapiens, UniProt Q09013); details: 35 at 1 µM; read-out: % inhibition
T6 construct: purchased Eurofins DiscoverX (KINOMEscan)
Protocol: as §1

DRAK1 = biological target: T7, DRAK1 (Homo sapiens, UniProt Q9UEE5); details: 35 at 1 µM; read-out: % inhibition
T7 construct: purchased Eurofins DiscoverX (KINOMEscan)
Protocol: as §1

[2] = biological target: T8, EGFR(L747-E749del, A750P) (Homo sapiens, UniProt P00533, A750P/DEL747-749); details: 35 at 1 µM; read-out: % inhibition
T8 construct: purchased Eurofins DiscoverX (KINOMEscan)
Protocol: as §1

EGFR(T790M) = biological target: T9, EGFR(T790M) (Homo sapiens, UniProt P00533, T790M); details: 35 at 1 µM; read-out: % inhibition
T9 construct: purchased Eurofins DiscoverX (KINOMEscan)
Protocol: as §1

EPHA6 = biological target: T10, EPHA6 (Homo sapiens, UniProt Q9UF33); details: 35 at 1 µM; read-out: % inhibition
T10 construct: purchased Eurofins DiscoverX (KINOMEscan)
Protocol: as §1

EPHB1 = biological target: T11, EPHB1 (Homo sapiens, UniProt P54762); details: 35 at 1 µM; read-out: % inhibition
T11 construct: purchased Eurofins DiscoverX (KINOMEscan)
Protocol: as §1

EPHB3 = biological target: T12, EPHB3 (Homo sapiens, UniProt P54753); details: 35 at 1 µM; read-out: % inhibition
T12 construct: purchased Eurofins DiscoverX (KINOMEscan)
Protocol: as §1

ERK5 = biological target: T13, ERK5 (Homo sapiens, UniProt Q13164); details: 35 at 1 µM; read-out: % inhibition
T13 construct: purchased Eurofins DiscoverX (KINOMEscan)
Protocol: as §1

FGFR2 = biological target: T14, FGFR2 (Homo sapiens, UniProt P21802); details: 35 at 1 µM; read-out: % inhibition
T14 construct: purchased Eurofins DiscoverX (KINOMEscan)
Protocol: as §1

GRK7 = biological target: T15, GRK7 (Homo sapiens, UniProt Q8WTQ7); details: 35 at 1 µM; read-out: % inhibition
T15 construct: purchased Eurofins DiscoverX (KINOMEscan)
Protocol: as §1

HCK = biological target: T16, HCK (Homo sapiens, UniProt P08631); details: 35 at 1 µM; read-out: % inhibition
T16 construct: purchased Eurofins DiscoverX (KINOMEscan)
Protocol: as §1

KIT(D816H) = biological target: T17, KIT(D816H) (Homo sapiens, UniProt P10721, D816H); details: 35 at 1 µM; read-out: % inhibition
T17 construct: purchased Eurofins DiscoverX (KINOMEscan)
Protocol: as §1

KIT(V559D,V654A) = biological target: T18, KIT(V559D,V654A) (Homo sapiens, UniProt P10721, V559D/V654A); details: 35 at 1 µM; read-out: % inhibition
T18 construct: purchased Eurofins DiscoverX (KINOMEscan)
Protocol: as §1

LIMK2 = biological target: T19, LIMK2 (Homo sapiens, UniProt P53671); details: 35 at 1 µM; read-out: % inhibition
T19 construct: purchased Eurofins DiscoverX (KINOMEscan)
Protocol: as §1

MAK = biological target: T20, MAK (Homo sapiens, UniProt P20794); details: 35 at 1 µM; read-out: % inhibition
T20 construct: purchased Eurofins DiscoverX (KINOMEscan)
Protocol: as §1

MAP4K5 = biological target: T21, MAP4K5 (Homo sapiens, UniProt Q9Y4K4); details: 35 at 1 µM; read-out: % inhibition
T21 construct: purchased Eurofins DiscoverX (KINOMEscan)
Protocol: as §1

MINK = biological target: T22, MINK (Homo sapiens, UniProt Q8N4C8); details: 35 at 1 µM; read-out: % inhibition
T22 construct: purchased Eurofins DiscoverX (KINOMEscan)
Protocol: as §1

MKNK1 = biological target: T23, MKNK1 (Homo sapiens, UniProt Q9BUB5); details: 35 at 1 µM; read-out: % inhibition
T23 construct: purchased Eurofins DiscoverX (KINOMEscan)
Protocol: as §1

MKNK2 = biological target: T24, MKNK2 (Homo sapiens, UniProt Q9HBH9); details: 35 at 1 µM; read-out: % inhibition
T24 construct: purchased Eurofins DiscoverX (KINOMEscan)
Protocol: as §1

MST2 = biological target: T25, MST2 (Homo sapiens, UniProt Q13188); details: 35 at 1 µM; read-out: % inhibition
T25 construct: purchased Eurofins DiscoverX (KINOMEscan)
Protocol: as §1

NEK2 = biological target: T26, NEK2 (Homo sapiens, UniProt P51955); details: 35 at 1 µM; read-out: % inhibition
T26 construct: purchased Eurofins DiscoverX (KINOMEscan)
Protocol: as §1

NEK3 = biological target: T27, NEK3 (Homo sapiens, UniProt P51956); details: 35 at 1 µM; read-out: % inhibition
T27 construct: purchased Eurofins DiscoverX (KINOMEscan)
Protocol: as §1

NEK5 = biological target: T28, NEK5 (Homo sapiens, UniProt Q6P3R8); details: 35 at 1 µM; read-out: % inhibition
T28 construct: purchased Eurofins DiscoverX (KINOMEscan)
Protocol: as §1

PCTK1 = biological target: T29, PCTK1 (Homo sapiens, UniProt Q00536); details: 35 at 1 µM; read-out: % inhibition
T29 construct: purchased Eurofins DiscoverX (KINOMEscan)
Protocol: as §1

PDGFRB = biological target: T30, PDGFRB (Homo sapiens, UniProt P09619); details: 35 at 1 µM; read-out: % inhibition
T30 construct: purchased Eurofins DiscoverX (KINOMEscan)
Protocol: as §1

PFPK5(P.falciparum) = biological target: T31, PFPK5(P.falciparum) (Plasmodium falciparum, UniProt P61075); details: 35 at 1 µM; read-out: % inhibition
T31 construct: purchased Eurofins DiscoverX (KINOMEscan)
Protocol: as §1

PHKG2 = biological target: T32, PHKG2 (Homo sapiens, UniProt P15735); details: 35 at 1 µM; read-out: % inhibition
T32 construct: purchased Eurofins DiscoverX (KINOMEscan)
Protocol: as §1

PKMYT1 = biological target: T33, PKMYT1 (Homo sapiens, UniProt Q99640); details: 35 at 1 µM; read-out: % inhibition
T33 construct: purchased Eurofins DiscoverX (KINOMEscan)
Protocol: as §1

PLK2 = biological target: T34, PLK2 (Homo sapiens, UniProt Q9NYY3); details: 35 at 1 µM; read-out: % inhibition
T34 construct: purchased Eurofins DiscoverX (KINOMEscan)
Protocol: as §1

RIPK1 = biological target: T35, RIPK1 (Homo sapiens, UniProt Q13546); details: 35 at 1 µM; read-out: % inhibition
T35 construct: purchased Eurofins DiscoverX (KINOMEscan)
Protocol: as §1

RIPK5 = biological target: T36, RIPK5 (Homo sapiens, UniProt Q6XUX3); details: 35 at 1 µM; read-out: % inhibition
T36 construct: purchased Eurofins DiscoverX (KINOMEscan)
Protocol: as §1

ROCK1 = biological target: T37, ROCK1 (Homo sapiens, UniProt Q13464); details: 35 at 1 µM; read-out: % inhibition
T37 construct: purchased Eurofins DiscoverX (KINOMEscan)
Protocol: as §1

SBK1 = biological target: T38, SBK1 (Homo sapiens, UniProt Q52WX2); details: 35 at 1 µM; read-out: % inhibition
T38 construct: purchased Eurofins DiscoverX (KINOMEscan)
Protocol: as §1

TGFBR2 = biological target: T39, TGFBR2 (Homo sapiens, UniProt P37173)
T39 construct: purchased Eurofins DiscoverX (KINOMEscan)
Protocol: as §1

TRPM6 = biological target: T40, TRPM6 (Homo sapiens, UniProt Q9BX84); details: 35 at 1 µM; read-out: % inhibition
T40 construct: purchased Eurofins DiscoverX (KINOMEscan)
Protocol: as §1

ULK3 = biological target: T41, ULK3 (Homo sapiens, UniProt Q6PHR2); details: 35 at 1 µM; read-out: % inhibition
T41 construct: purchased Eurofins DiscoverX (KINOMEscan)
Protocol: as §1

WNK2 = biological target: T42, WNK2 (Homo sapiens, UniProt Q9Y3S1); details: 35 at 1 µM; read-out: % inhibition
T42 construct: purchased EuroFins DiscoverX (Fremont, CA, USA)
Protocol: as §1

ZAP70 = biological target: T43, ZAP70 (Homo sapiens, UniProt P43403); details: 35 at 1 µM; read-out: % inhibition
T43 construct: purchased EuroFins DiscoverX (Fremont, CA, USA)
Protocol: as §1

T39 sequence (P37173 23-567): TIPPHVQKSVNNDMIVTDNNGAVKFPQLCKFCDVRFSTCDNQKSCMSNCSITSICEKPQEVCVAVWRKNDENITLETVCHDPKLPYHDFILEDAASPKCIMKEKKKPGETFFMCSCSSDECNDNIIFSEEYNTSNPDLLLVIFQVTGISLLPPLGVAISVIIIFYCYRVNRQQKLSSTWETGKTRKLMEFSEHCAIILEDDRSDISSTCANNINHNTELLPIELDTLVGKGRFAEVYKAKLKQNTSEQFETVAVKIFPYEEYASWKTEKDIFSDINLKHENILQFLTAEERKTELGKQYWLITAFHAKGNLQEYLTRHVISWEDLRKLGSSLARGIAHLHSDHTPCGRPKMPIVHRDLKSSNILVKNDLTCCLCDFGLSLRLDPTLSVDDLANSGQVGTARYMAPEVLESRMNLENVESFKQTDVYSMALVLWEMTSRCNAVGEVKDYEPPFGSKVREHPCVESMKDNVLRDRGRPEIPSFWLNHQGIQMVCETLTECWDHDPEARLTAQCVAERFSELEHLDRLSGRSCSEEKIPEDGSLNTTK
T42 sequence (Q9Y3S1 whole entry): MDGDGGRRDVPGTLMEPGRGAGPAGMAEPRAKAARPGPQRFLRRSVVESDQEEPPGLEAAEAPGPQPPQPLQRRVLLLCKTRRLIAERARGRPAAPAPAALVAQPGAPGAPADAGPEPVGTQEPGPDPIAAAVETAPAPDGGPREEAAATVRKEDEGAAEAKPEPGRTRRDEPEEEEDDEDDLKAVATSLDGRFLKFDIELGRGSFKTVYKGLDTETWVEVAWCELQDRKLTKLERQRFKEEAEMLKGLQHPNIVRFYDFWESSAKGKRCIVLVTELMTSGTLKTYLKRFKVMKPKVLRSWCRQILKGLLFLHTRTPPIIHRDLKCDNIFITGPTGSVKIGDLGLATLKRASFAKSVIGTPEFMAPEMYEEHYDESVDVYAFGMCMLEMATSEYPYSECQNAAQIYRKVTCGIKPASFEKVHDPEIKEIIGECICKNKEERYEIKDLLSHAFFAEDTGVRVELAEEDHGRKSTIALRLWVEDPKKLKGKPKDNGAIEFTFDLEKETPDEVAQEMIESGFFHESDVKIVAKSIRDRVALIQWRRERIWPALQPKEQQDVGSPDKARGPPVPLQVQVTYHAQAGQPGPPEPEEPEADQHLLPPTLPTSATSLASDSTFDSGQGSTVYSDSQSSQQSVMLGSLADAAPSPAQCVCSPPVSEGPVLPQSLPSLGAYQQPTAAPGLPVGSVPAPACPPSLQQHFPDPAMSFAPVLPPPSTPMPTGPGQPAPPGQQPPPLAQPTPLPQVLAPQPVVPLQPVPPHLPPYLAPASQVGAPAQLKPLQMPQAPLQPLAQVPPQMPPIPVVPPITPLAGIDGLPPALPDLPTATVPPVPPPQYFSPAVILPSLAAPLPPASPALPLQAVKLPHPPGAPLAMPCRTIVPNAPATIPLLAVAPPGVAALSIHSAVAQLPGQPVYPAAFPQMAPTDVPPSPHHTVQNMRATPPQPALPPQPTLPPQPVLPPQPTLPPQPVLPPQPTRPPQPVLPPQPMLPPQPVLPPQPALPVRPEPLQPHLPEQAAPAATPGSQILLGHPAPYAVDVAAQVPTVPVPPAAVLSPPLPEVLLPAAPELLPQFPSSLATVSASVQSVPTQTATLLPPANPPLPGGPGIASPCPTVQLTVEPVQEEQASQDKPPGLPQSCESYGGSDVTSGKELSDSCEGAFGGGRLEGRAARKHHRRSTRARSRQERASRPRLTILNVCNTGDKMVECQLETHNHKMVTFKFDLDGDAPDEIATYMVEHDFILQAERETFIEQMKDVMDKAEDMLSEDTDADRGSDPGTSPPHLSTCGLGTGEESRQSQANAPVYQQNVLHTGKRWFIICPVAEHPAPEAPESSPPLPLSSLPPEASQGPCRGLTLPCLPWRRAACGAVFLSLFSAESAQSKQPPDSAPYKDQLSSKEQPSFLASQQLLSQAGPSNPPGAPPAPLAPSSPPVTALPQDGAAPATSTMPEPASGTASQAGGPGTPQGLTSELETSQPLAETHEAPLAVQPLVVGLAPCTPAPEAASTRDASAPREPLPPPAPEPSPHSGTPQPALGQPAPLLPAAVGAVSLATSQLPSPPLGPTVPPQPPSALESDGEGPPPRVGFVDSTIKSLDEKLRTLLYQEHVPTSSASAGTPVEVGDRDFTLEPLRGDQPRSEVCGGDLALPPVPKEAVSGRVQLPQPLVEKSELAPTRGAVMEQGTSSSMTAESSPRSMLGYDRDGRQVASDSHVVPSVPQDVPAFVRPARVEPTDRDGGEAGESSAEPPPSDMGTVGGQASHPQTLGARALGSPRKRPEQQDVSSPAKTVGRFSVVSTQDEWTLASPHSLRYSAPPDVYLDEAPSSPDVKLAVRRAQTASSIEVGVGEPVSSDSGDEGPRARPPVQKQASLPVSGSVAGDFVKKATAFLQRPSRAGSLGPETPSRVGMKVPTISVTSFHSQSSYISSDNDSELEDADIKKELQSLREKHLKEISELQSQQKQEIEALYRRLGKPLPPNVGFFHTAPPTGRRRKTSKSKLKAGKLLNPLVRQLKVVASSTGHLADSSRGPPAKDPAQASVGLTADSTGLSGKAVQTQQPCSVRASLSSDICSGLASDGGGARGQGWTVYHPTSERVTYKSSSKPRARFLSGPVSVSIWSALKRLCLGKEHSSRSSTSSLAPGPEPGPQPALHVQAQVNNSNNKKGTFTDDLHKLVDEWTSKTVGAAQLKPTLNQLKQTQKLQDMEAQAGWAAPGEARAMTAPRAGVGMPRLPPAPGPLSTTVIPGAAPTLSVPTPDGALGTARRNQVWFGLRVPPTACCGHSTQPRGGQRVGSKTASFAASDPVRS
T17 sequence (P10721 26-976 D816H): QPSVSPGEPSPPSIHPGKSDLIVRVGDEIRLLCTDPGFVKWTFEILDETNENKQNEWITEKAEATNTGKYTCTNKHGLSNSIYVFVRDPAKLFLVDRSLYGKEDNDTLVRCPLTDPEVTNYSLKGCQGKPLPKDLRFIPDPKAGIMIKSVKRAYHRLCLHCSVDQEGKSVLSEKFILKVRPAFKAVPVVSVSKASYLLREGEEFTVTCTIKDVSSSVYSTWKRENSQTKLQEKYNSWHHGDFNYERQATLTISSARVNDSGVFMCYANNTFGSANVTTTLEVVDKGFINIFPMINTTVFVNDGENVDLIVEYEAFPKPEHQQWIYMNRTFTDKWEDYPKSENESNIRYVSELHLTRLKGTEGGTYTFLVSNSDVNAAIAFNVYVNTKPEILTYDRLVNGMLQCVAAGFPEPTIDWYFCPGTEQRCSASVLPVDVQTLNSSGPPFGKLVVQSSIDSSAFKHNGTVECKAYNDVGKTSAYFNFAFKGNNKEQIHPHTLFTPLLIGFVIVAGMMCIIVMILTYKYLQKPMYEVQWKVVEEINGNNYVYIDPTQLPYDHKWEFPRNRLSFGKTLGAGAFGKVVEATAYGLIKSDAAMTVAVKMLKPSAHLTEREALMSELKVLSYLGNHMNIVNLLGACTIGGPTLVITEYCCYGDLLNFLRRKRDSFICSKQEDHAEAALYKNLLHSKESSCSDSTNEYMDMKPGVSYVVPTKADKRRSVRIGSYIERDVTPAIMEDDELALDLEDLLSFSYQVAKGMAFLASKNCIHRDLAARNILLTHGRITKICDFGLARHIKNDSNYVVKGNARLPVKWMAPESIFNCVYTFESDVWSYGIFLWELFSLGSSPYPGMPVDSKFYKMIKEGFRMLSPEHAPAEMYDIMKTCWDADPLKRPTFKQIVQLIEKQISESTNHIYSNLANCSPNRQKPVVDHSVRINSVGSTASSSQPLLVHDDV
T18 sequence (P10721 26-976 V559D/V654A): as the sequence (P10721 26-976 D816H) above, with V534D, V629A, H791D counted along it
T23 sequence (Q9BUB5 whole entry): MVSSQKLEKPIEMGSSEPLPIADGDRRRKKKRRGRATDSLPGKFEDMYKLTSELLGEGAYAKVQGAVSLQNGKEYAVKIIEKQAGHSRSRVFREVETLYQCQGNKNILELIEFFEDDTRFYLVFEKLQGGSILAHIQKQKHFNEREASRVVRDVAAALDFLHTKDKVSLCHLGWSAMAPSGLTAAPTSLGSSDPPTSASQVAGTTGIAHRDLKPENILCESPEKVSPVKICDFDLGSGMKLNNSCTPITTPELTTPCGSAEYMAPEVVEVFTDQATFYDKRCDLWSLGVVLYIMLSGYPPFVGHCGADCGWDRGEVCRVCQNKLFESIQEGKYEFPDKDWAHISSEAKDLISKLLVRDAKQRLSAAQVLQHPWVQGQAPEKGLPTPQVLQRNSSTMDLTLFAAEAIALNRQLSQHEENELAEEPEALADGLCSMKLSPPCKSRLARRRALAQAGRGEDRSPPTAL
T31 sequence (P61075 whole entry): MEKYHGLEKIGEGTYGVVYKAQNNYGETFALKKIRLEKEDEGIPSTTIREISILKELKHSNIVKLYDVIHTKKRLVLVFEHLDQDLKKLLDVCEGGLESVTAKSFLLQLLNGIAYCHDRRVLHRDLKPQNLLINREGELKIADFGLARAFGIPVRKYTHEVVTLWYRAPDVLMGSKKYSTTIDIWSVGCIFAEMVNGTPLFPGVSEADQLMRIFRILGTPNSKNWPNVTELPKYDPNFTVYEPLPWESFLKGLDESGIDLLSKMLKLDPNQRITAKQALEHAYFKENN
T3 sequence (Q9Y243 whole entry): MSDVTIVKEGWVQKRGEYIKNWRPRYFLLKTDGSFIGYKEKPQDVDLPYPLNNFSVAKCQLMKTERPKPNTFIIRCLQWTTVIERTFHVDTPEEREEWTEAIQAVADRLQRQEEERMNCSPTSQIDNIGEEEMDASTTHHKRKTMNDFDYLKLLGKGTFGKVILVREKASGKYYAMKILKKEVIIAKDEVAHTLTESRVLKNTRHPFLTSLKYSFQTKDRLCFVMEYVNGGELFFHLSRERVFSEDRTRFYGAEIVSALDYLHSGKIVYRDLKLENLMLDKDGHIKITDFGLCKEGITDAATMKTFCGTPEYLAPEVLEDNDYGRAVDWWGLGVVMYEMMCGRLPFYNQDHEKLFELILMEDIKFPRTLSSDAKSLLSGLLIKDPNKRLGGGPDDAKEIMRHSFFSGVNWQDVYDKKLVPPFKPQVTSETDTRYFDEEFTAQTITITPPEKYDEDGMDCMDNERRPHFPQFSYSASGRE

In the case of `Brc1ccc2nccc(Nc3ccc4cn[nH]c4c3)c2c1` [Compound 35, 6-Bromo-N-(1H-indazol-6-yl)quinolin-4-amine], the activity at 1 µM [1] was 85%, the activity at 1 µM (ABL2) was 88% and the activity at 1 µM (AKT3) was 100%. The activity at 1 µM (CSF1R) was 95%, the activity at 1 µM (DCAMKL3) was 99% and the activity at 1 µM (DMPK) was 100%. It also gave an activity at 1 µM (DRAK1) of 100%, an activity at 1 µM [2] of 81% and an activity at 1 µM (EGFR(T790M)) of 78%. The activity at 1 µM (EPHA6) was 100%, the activity at 1 µM (EPHB1) was 100% and the activity at 1 µM (EPHB3) was 100%. It also gave an activity at 1 µM (ERK5) of 100%, an activity at 1 µM (FGFR2) of 100% and an activity at 1 µM (GRK7) of 100%. It also gave an activity at 1 µM (HCK) of 100%, an activity at 1 µM (KIT(D816H)) of 100% and an activity at 1 µM (KIT(V559D,V654A)) of 100%. The activity at 1 µM (LIMK2) was 100%, the activity at 1 µM (MAK) was 100% and the activity at 1 µM (MAP4K5) was 100%. It also gave an activity at 1 µM (MINK) of 100%, an activity at 1 µM (MKNK1) of 79% and an activity at 1 µM (MKNK2) of 63%. The activity at 1 µM (MST2) was 100%, the activity at 1 µM (NEK2) was 86% and the activity at 1 µM (NEK3) was 89%. The activity at 1 µM (NEK5) was 93%, the activity at 1 µM (PCTK1) was 98% and the activity at 1 µM (PDGFRB) was 100%. For the same compound, the activity at 1 µM (PFPK5(P.falciparum)) was 100%, the activity at 1 µM (PHKG2) was 95% and the activity at 1 µM (PKMYT1) was 100%. For the same compound, the activity at 1 µM (PLK2) was 100%, the activity at 1 µM (RIPK1) was 100% and the activity at 1 µM (RIPK5) was 100%. The activity at 1 µM (ROCK1) was 71%, the activity at 1 µM (SBK1) was 99% and the activity at 1 µM (TGFBR2; 35 at 1 µM, read-out: % inhibition) was 18%. It also gave an inhibition at 1 µM (TGFBR2; KinomeScan, screened at 1 μM, read-out: kinases inhibited at 1 μM: TGFBR2) of 82%, an activity at 1 µM (TRPM6) of 100% and an activity at 1 µM (ULK3) of 81%. For the same compound, the activity at 1 µM (WNK2) was 100% and the activity at 1 µM (ZAP70) was 100%.

Source: publication PMC6891286, “Towards the Development of an In vivo Chemical Probe for Cyclin G Associated Kinase (GAK)” (Molecules, 2019)
